Data taken from patent US11986445B2, “Nutritional composition and infant formula for promoting myelination of the brain” (SOCIÉTÉ DES PRODUITS NESTLÉ S.A., priority 2015, dated 2024).

Tests used:
[1] = tested on: Neural Progenitor Cell (NPCs) from E14 mouse neocortex; assay: Neurosphere counts in 96-well plates; type: cell-based; conditions: Sphingomyelin Low dose (Dose 1: 10 nM); cells grown for 2 days
Experimental: (§1) Generation of Neural Progenitor Cell (NPCs) Libraries: • dissociation of E14 mouse neocortex
(§2) E14 pup brains were harvested and placed in ice cold DPBS (1×)+10% Pen/Strep, then they were dissected using a dissecting microscope. From each pup, one brain hemisphere was placed in 2 ml of Neurobasal media/10% P/S/10× Hepes and another brain hemisphere was placed in another tube.
(§3) The tissue from each tube was aseptically and manually dissociate into single cells, neurobasal complete medium was added and centrifuged at 130 G for 5 min. The tissue was then re-suspended in neurobasal complete media with GF and placed in a corning suspension culture dish 100 mm×20 mm (#430591). Cells were passage twice using a 1:3 ratio, after what they were centrifuged (130 g 5 min), resuspended in freezing media (10% DMSO and neurobasal complete media, no GF) and frozen in liquid nitrogen (LN2).
Vials were remove from LN2, quickly defrosted, and cells were transferred, dropwise, to a 15 mL conical flask. 10 mls of complete neurobasal media was added. Cells were transferred to a suspension culture dish, and placed in an incubator for 2 hours. At 1.5 hours, cells were examined. Based on the health and number, the number of plates needed was estimated and the appropriate amount of complete neurobasal media was warmed. After 2 hours, cells were put in a 15 mL conical tube and spun at 130 G, 5 min. […]

[2] = tested on: Neural Progenitor Cell (NPCs) from E14 mouse neocortex; assay: Monolayer culture NPC proliferation assay; type: cell-based; conditions: Sphingomyelin low dose (Dose 1: 10 nM); 3 days culture
Experimental: as §1, §2, §3
Vials were remove from LN2, quickly defrosted, and cells were transferred, dropwise, to a 15 mL conical flask. 10 mls of complete neurobasal media was added. Cells were transferred to a suspension culture dish, and placed in an incubator for 2 hours. At 1.5 hours, cells were examined. […]
EDU incorporation was measured using Click-iT® EdU Alexa Fluor® 555 Imaging Kit (Life technologies, #c10338). […]

[3] = tested on: brain myelination (myelin water fraction); assay: Cross-sectional correlation of infant formula nutrient content with brain myelination (MRI myelin water fraction); type: in vivo, human; conditions: children up to 5 years fed different infant formulas
Excerpt: This technique provides a quantitative measure, the Myelin Water Fraction (MWF), which is a surrogate marker of myelin content in the brain.
Infants included in this study were drawn from a larger longitudinal study of normal brain and behavioral development: the Brown University Assessment of Myelination and Behavior Across Maturation (BAMBAM). To focus on neurotypical development, children with known potential risk factors for learning, neurologic, or psychiatric disorders were specifically excluded during recruitment and enrollment. Thus, children with in utero alcohol or illicit substance exposure, premature (<37 weeks gestation) or multiple birth, fetal ultrasound abnormalities, complicated pregnancy (e.g., preeclampsia), APGAR scores <8, NICU admission, neurological disorder (e.g., head injury, epilepsy), psychiatric or developmental disorders in the infant, parents or siblings (including maternal depression requiring medication) were excluded. Ongoing screenings, such as the MCAT for autism, or CBCL for behavioral problems, were further used to remove enrolled children with clinically concerning behaviors or overt medical conditions (such as autism spectrum disorders).
A combination of retrospective and prospective data were acquired from parents via detailed medical histories and parental interview on the type of infant formula used, percentage of breastfeeding to formula feeding, and length of exclusive breastfeeding. This information was updated at each study visit, which occurred approximately every 6 months for children under 2 years, and yearly for older children. Using this information, children were categorized into one of 2 groups: #1. Exclusively formula-fed; and #2. Exclusively breastfed for at least 90 days (3 months). Children who were fed a combination of breastmilk and formula within 3 months were excluded from our analysis. Infants within the exclusively formula-fed group were further sub-divided based on parental reports of the main infant formula used throughout the first 3 months. Main formula was defined as that given 90% of the time or more (in the case were parents used an alternate brand during vacation, for example).
Using these criteria, 94 exclusively formula-fed infants and young children were selected into group #1. These included 13 children who received formula #2; 28 who received formula #5; 8 who received formula #3; 39 who received formula #4; 5 who received formula #1 and 1 who received formula #6. A sample of 52 exclusively breast-fed infants were also selected and matched to the over formula-fed group with regards to mean age, gestation duration, birth weight, male:female ratio, ethnicity ratio, maternal education, family size, and number of languages spoken in the home (in addition to English).

Molecule | number of neurospheres, Average (Mean) [1] | neuronal proliferation, DAPI [2] | association of nutrient with myelination (myelin water fraction) over time in the brain [3]
Sphingomyelin | 94 | 280 | an association with myelination (myelin water fraction) was observed
vitamin B12 | – | – | an association with myelination (myelin water fraction) was observed
phosphatidylinositol | – | – | an association with myelination (myelin water fraction) was observed
[Ca+2] [calcium] | – | – | an association with myelination (myelin water fraction) was observed
phosphatidylcholine | – | – | an association with myelination (myelin water fraction) was observed
iron | – | – | an association with myelination (myelin water fraction) was observed
[Zn] [zinc] | – | – | an association with myelination (myelin water fraction) was observed
[Mg+2] [magnesium] | – | – | an association with myelination (myelin water fraction) was observed
CCCCC/C=C\C/C=C\C/C=C\C/C=C\CCCC(=O)O [AA, arachidonic acid] | – | – | an association with myelination (myelin water fraction) was observed
[P] [phosphorus] | – | – | an association with myelination (myelin water fraction) was observed
